Assay [1] concerns the target T1, CK2α’ (full-length, NanoLuc fusion) (Homo sapiens, UniProt P19784). Briefly: NanoBRET tracer displacement, intact HEK293T. Format: cell-based. The note with it: intact cells, […] h, […] °C, tracer competition. Background: Bioluminescence resonance energy transfer reports proximity on the nanometre scale.
The target of assay [2] is T1, CK2α’ (full-length, NanoLuc fusion). The assay can be described thus: cell-based. Set-up: species or system HEK293T.
For assay [3], the target named is T2, CK2α (full-length, NanoLuc fusion) (Homo sapiens, UniProt P68400). The assay can be described thus: cell-based. Set-up: species or system HEK293T.
T2 sequence (P68400 whole entry, the tested form may be a part): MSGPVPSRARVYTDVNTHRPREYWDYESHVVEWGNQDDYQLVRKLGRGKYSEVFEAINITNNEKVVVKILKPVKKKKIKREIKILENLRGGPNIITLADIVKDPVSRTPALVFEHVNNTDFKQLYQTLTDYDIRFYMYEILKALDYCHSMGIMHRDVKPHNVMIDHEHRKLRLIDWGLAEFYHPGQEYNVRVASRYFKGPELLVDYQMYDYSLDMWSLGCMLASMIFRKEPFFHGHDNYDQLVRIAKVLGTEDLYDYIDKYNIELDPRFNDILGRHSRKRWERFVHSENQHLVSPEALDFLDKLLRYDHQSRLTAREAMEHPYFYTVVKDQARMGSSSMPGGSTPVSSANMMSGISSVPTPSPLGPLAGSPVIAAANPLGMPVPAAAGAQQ
In assay [4] the target is T2, CK2α (full-length, NanoLuc fusion). Briefly: NanoBRET tracer displacement, intact HEK293T. Format: cell-based. The note with it: intact cells, […] h, […] °C, tracer competition.

pIC50: −log10 of the molar value. Bounds are passed on as bounds.

T1 sequence (P19784 whole entry, the tested form may be a part): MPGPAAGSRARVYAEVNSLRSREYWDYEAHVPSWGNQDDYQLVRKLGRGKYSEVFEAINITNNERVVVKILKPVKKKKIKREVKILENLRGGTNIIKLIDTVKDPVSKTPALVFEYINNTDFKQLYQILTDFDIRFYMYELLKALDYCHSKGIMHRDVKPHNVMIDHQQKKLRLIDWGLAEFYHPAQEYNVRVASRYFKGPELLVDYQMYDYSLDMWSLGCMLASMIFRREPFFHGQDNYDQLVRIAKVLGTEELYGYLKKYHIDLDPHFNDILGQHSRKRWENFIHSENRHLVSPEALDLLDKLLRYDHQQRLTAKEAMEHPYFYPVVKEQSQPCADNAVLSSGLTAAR

What is called pIC50 is the IC50 on a negative log10 scale, so that one unit is a factor of ten. Higher therefore signals a small IC50. As to `CC(C)(C)OC(=O)N1CCOCCOc2cc(ccc2C(=O)O)-c2cnn3ccc1nc23` [compound 32, 13-[(tert-Butoxy)carbonyl]-7,10-dioxa-13,17,18,21-tetraazatetracyclo[12.5.2.1^2,^6.0^17,^20]docosa-1(20),2,4,6(22),14(21),15,18-heptaene-5-carboxylic acid], the pIC50 in assay [1] was 5.13.

With `CC(C)(C)OC(=O)N(CCOCCO)c1ccn2ncc(-c3ccc(C#N)c(O)c3)c2n1` [compound 23, tert-Butyl N-[3-(4-cyano-3-hydroxyphenyl)pyrazolo[1,5-a]pyrimidin-5-yl]-N-[2-(2-hydroxyethoxy)ethyl]carbamate], the pIC50 in assay [2] and in assay [3] was less than 4.30 in each case. Take `O=C(O)c1ccc2cc1OCCOCCNc1ccn3ncc-2c3n1` [compound 34, 7,10-Dioxa-13,17,18,21-tetraazatetracyclo[12.5.2.1^2,^6.0^17,^20]docosa-1(20),2,4,6(22),14(21),15,18-heptaene-5-carboxylic acid]: the pIC50 in assay [1] was 4.79; in assay [4], 5.24.

These data come from paper doi:10.1101/2020.06.27.175109v1 (biorxiv, 2020).
